Results as given in patent publication US12473295B2, “Substituted straight chain spiro derivatives” (Janssen Pharmaceutica NV, priority 2019, dated 2025).
Where a name gives a salt, the structure may show the parent alone. Read-outs that look alike come from different tables or passages of the source.

Key:
[1] = biological target: menin/MLL (terbium chelate-labeled menin, FITC-MBM1 peptide) (Homo sapiens (Human), UniProt O00255); assay: Menin/MLL homogenous time-resolved fluorescence (HTRF) assay; assay type: binding;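 also: IC50 from percent inhibition of HTRF signal, normalized between wells without competitor and wells with a saturating competitor that displaces FITC-MBM1 from His-tagged menin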
MEIS1 mRNA = MEIS1 mRNA expression assay (Quantigene Singleplex) in MOLM14 cells; assay type: cell-based, human; details: 48 hours incubation;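 also: MEIS1 transcript levels read by probe hybridization and normalized to RPL28 mRNA, with IC50 fitted to fold changes across a rising compound concentration series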
KO-52 cells = assay: Proliferation assay (spheroid growth, 8 days), KO-52 control cell line; assay type: cell-based, human; details: read-out: spheroid assay_OneTime KO-52 IC50
Method in brief: (§1)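 200 MOLM14 (MLL-AF9), 200 OCI-AML3 (NPM1c) or 300 KO-52 (MLL wildtype) cells were grown as spheroids in ultra-low attachment wells with compound, 0.3% DMSO, for 8 days at 37 °C. Confluence was imaged on day 8, normalized to DMSO and top-dose reference compound. IC50 came from a variable-slope fit constrained 0–100%.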

OCI-AML3 cells = assay: Proliferation assay (spheroid growth, 8 days), OCI-AML3; assay type: cell-based, human; details: OCI-AML3, 8 days
Method in brief: as §1

hERG potassium channel = hERG potassium channel (Homo sapiens (Human), UniProt Q12809); assay: Effect on membrane potassium current IKr in hERG transfected CHO cells, Protocol 1 (QPatch); assay type: cell-based
Procedure: 8) Effect on the Membrane Potassium Current IKr in hERG Transfected Cell Lines
• CHO Chinese hamster ovary cell line • DMSO Dimethylsulfoxide • hERG human ether-á-go-go-related gene • IKr rapidly activating delayed-rectifier K^+ current Methods
Experiments were performed using CHO cells stably expressing the hERG potassium channel. Cells were grown at 37° C. and 5% CO2 in culture flasks in Ham's F12 Medium supplemented with 10% heat-inactivated fetal calf serum, hygromycin B (100 μg/ml) and geneticin (100 μg/ml). For use in the automated patch-clamp system QPatch (Sophion) cells were harvested to obtain cell suspension of single cells.
Solutions: The bath solution contained (in mM) 145 NaCl, 4 KCl, 10 glucose, 10 HEPES ((4-(2-hydroxyethyl)-1-piperazineethanesulfonic acid), 2 CaCl2 and 1 MgCl2 (pH 7.4 with NaOH). The pipette solution contained (in mM) 120 KCl, 10 EGTA (Ethylene glycol-bis(2-aminoethylether)-N,N,N′,N′-tetraacetic acid), 10 HEPES, 5.374 CaCl2 and 1.75 MgCl2 (pH 7.2 with KOH).
Patch-clamp experiments were performed in the voltage-clamp mode and whole-cell currents were recorded with an automated patch-clamp assay utilizing the QPatch system (Sophion). Current signals were amplified and digitized, stored and analyzed by using the QPatch assay software.
The holding potential was −80 mV. The hERG current (K^+-selective outward current) was determined as the maximal tail current at −40 mV after a 2 second depolarization to +60 mV. Pulse cycling rate was 15 s. A short pulse (90 ms) to −40 mV served as a baseline step to calculate the tail current amplitude. After establishing whole-cell configuration and a stability period, the solvent control (0.3% DMSO) was applied for 5 minutes followed by the test substance by four increasing concentrations of 3×10^−7 M, 3×10^−6 M, 10^−5 M and 3×10^−5 M. Each concentration of the test substance was applied twice. The effect of each concentration was determined after 5 min as an average current of 3 sequential voltage pulses. To determine the extent of block the residual current was compared with vehicle pre-treatment.
Concentration/response relations were calculated by non-linear least-squares fits to the individual data points. The half-maximal inhibiting concentration (IC50) was calculated by the fitting routine.

MOLM14 cells = assay: Proliferation assay (spheroid growth, 8 days), MOLM14; assay type: cell-based, human; details: MOLM14, 8 days, read-out: spheroid assay_OneTime MOLM14 IC50;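 also: spheroid size read as confluence by live-cell imaging, compounds added at a range of concentrations with 0.3% DMSO, DMSO-treated wells = 0%, highest reference dose = low control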
iCell Cardiomyocytes2 = assay: Ca2+-fluorescence assay in human pluripotent stem cell-derived cardiomyocytes (CTCM human), iCell Cardiomyocytes2; assay type: cell-based; design: key: Green: No concern; Yellow: Low concern; Red: High concern; Black: Very high concern due to arrhythmic events; details: 30 min; for Color @ 0.1 μM (hazard score): iCell Cardiomyocytes2, 0.1 μM; for Color @ 0.1 μM (hazard score) / Color @ 1 μM (hazard score): range 0.1-30 μM; for Color @ 0.3 μM (hazard score): iCell Cardiomyocytes2, 0.3 μM; for Color @ 1 μM (hazard score): iCell Cardiomyocytes2, 1 μM; for Color @ 3 μM (hazard score): iCell Cardiomyocytes2, 3 μM; for Color @ 10 μM (hazard score): iCell Cardiomyocytes2, 10 μM; for Color @ 30 μM (hazard score): iCell Cardiomyocytes2, 30 μM
Procedure: 7) Cardio-Electrophysiological Effects of the Testing Compounds in Synchronously Beating Human Pluripotent Stem Cell-Derived Cardiomyocytes (hSC-CMs) Using a Ca^2+-Fluorescence Assay (CTCM Human)
Compounds were tested in the 96-well plates
Compounds were tested at 0.1 μM, 0.2 μM, 0.5 μM, 1 μM, 2.5 μM and 5 μM (n=4 per dose) on Cor.4U 9-Cardiomyocytes or on iCell® Cardiomyocytes2
Alternatively, compounds were tested at 0.1 μM, 0.3 μM; 1 μM, 3 μM, 10 μM and 30 μM (n=4 per dose) mostly on iCell® Cardiomyocytes2
Dimethylsulfoxide (DMSO). The solutions of the compound in DMSO or its solvent (final concentration of 0.1% DMSO; n=8)
Preparation of Test Article and Controls
Tested compounds were dissolved in DMSO at 1000-fold the intended concentrations. A compound “mother-plate” was made, containing the test compounds and positive and negative controls at 1000-fold the final concentrations. At the experiment day, these stock solutions were diluted with Tyrode (Sigma), supplemented with 10 mM HEPES (Gibco), to 2-fold the intended concentration (in round bottom compound plates). Final DMSO concentration in test solutions and vehicle control was 0.1%.
Second line hSC derived cardiomyocyte called iCell®, Cardiomyocytes2 were purchased from FUJIFILM Cellular Dynamics (USA). The experiments with test drugs are carried out 5 to 7 days after plating the cells onto the plate to have a living, beating monolayer of hiPSC-derived cardiomyocytes. The beating monolayer in 96-well-plates are normally taken from 2 Vials of frozen iCell) Cardiomyocytes2 (≈5 million cells/vial), which will be plated onto […] 96-well plates (≈50K/well).
Before Start of Experiment
At least one hour before the start of the experiments the normal cell medium was replaced with Tyrode solution with Calcium dye (see below).
Cal 520 dye (AAT Bioquest) was dissolved in 11 ml of Tyrode supplemented with 10 mM HEPES and warmed up to 37° C. before adding to the cells.
35 μl cell culture medium was removed from each well and replaced with 35 μl of pre-warmed Cal 520 dye solution and cell plate was incubated for 45 min at 37° C./5% CO2. Cells were incubated for 5 min at 37° C.
Spontaneous electrical activity is recorded, using Cal520™ (AAT Bioquest) calcium fluorescence-dye signaling. This dye integrates the total intracellular calcium activity over the whole well. A bottle of Cal520 dye (50 μg, MW: 1103/mol) is dissolved with 50 μl DMSO as a stock solution of 0.9 mM. 50 μL of the stock solution of the dye was added to 10 ml Tryodes solution to have dye concentration of 4.5 μM. Subsequently, 35 μl of this dye solution was added into each well, to have a final dye concentration of 1.58 μM. The current dye protocol on this CTCM human assay was established recently (Ivan Kopljar et al, Journal of Pharmacological and toxicological methods 2018. 91: 80-86; Lu et al., Tox Sci 2019. 170 (2): 345-356).
Fluorescent signals (Ca^2+ transient morphology) were measured using the Functional Drug Screen System (FDSS/μCell; Hamamatsu, Japan) and the recordings were subsequently analyzed off-line, using appropriate software e.g. Notocord.
The cell plate was loaded into the FDSS/μCell for a test run: Ca^2+ transients were measured for 4 minutes to check for synchronous beating of the cardiomyocytes in each well. All 96 wells were measured simultaneously (sampling interval: 0.06 s, short exposure time: 10 ms; excitation wavelength 480 nm; emission wavelength 540 nm; FDSS/μCell warmed to 37° C.).
During the compound addition step, 100 μl of the respective double-concentrated test solutions was pipetted into each well simultaneously.
Data were analyzed off-line using appropriate software e.g. Notocord-Hem (version 4.3).
The following parameters of the Ca^2′ transient morphology were measured: • beat rate (BR) • amplitude of the Ca^2+ transient (Amp), • CTD90: Ca^2+ transient duration at 90% (time to 90% of the initial base value). […]

[2] = HTRF-30 min incubation IC50, 30 min incubation

hERG potassium channel, sequence (Q12809 whole entry): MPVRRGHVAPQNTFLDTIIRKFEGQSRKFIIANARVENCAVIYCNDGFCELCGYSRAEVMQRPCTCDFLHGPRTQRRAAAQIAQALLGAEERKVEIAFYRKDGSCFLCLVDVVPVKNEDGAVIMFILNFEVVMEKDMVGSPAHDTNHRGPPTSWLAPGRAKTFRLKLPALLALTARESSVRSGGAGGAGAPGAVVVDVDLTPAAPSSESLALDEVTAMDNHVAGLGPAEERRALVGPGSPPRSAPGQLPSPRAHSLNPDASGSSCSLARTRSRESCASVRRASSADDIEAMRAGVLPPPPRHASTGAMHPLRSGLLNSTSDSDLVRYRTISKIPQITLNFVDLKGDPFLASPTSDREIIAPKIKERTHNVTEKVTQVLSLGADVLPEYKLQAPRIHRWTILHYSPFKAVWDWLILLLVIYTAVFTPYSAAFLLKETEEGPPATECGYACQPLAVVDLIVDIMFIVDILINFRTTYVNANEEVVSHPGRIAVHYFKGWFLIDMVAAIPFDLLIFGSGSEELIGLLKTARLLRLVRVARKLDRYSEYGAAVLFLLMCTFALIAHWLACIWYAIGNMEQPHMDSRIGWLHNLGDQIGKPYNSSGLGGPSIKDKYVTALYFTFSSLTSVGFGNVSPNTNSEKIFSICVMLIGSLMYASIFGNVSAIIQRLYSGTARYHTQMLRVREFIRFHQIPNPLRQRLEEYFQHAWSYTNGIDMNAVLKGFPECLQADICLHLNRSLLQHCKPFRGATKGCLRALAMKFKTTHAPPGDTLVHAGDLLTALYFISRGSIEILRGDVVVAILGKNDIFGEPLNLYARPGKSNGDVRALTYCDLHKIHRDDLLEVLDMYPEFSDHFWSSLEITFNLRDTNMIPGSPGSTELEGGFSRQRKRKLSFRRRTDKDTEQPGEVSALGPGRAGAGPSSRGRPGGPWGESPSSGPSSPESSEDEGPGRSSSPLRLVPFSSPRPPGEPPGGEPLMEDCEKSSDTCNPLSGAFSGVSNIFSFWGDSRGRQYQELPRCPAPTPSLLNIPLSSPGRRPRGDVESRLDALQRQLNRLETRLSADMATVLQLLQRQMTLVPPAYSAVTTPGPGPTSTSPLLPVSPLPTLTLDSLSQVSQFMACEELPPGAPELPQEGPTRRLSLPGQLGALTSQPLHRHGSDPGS
menin/MLL (terbium chelate-labeled menin, FITC-MBM1 peptide), sequence (O00255 other isoform, or with tags, fused parts or gaps): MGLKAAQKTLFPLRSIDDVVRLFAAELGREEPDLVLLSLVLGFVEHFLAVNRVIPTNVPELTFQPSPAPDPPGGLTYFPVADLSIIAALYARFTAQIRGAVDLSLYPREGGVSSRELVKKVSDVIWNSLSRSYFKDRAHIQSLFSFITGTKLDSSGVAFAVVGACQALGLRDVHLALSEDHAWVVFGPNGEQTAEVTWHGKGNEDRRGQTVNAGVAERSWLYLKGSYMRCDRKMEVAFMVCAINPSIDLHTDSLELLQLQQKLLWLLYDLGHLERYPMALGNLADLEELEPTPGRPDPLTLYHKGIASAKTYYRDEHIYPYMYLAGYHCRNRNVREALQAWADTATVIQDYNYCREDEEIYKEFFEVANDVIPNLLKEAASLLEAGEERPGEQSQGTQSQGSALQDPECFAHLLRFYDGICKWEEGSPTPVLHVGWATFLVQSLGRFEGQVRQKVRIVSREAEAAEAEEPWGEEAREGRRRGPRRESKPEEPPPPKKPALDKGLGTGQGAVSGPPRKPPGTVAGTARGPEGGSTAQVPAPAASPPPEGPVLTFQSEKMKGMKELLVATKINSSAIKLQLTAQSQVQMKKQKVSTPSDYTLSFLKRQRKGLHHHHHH

| Molecule | IC50 [1, 2] [nM] | IC50 (MEIS1 mRNA; Homo sapiens, MOLM-14, 48 h) [nM] | IC50 (KO-52 cells; Homo sapiens, […]) [nM] | IC50 (OCI-AML3 cells; Homo sapiens, OCI-AML-3, […]) [nM] | IC50 (hERG potassium channel) [nM] | IC50 (MOLM14 cells; Homo sapiens, MOLM-14, […]) [nM] | Color @ 0.1 μM (hazard score) (iCell Cardiomyocytes2) | Color @ 0.3 μM (hazard score) (iCell Cardiomyocytes2) | Color @ 1 μM (hazard score) (iCell Cardiomyocytes2) | Color @ 3 μM (hazard score) (iCell Cardiomyocytes2) | Color @ 10 μM (hazard score) (iCell Cardiomyocytes2) | Color @ 30 μM (hazard score) (iCell Cardiomyocytes2) | further results |
| --- | --- | --- | --- | --- | --- | --- | --- | --- | --- | --- | --- | --- | --- |
| CCN(C(=O)c1cc(F)ccc1Oc1nncnc1N1CCC2(C1)CN([C@H](CCC(C)(C)N)C(C)C)C2)C(C)C (single isomer, unassigned) [Compound 30, (*R)-2-((5-(2-(6-amino-2,6-dimethylheptan-3-yl)-2,6-diazaspiro[3.4]octan-6-yl)-1,2,4-triazin-6-yl)oxy)-N-ethyl-5-fluoro-N-isopropylbenzamide] | 0.067 | 99 | > 15000 | 470 | > 30200 | 130 |  |  |  |  |  |  |  |
| CCN(C(=O)c1cc(F)ccc1Oc1nncnc1N1CCC2(C1)CN([C@H](CCCN(C)C(=O)OC)C(C)C)C2)C(C)C [Compound 22, methyl (R)-(4-(6-(6-(2-(ethyl(isopropyl)carbamoyl)-4-fluorophenoxy)-1,2,4-triazin-5-yl)-2,6-diazaspiro[3.4]octan-2-yl)-5-methylhexyl)(methyl)carbamate] | 1.79 | ~760 | 12800 |  | 20900 | 360 |  |  |  |  |  |  |  |
| CCN(C(=O)c1cc(F)ccc1Oc1nncnc1N1CCC2(C1)CN(C(CCCO)C(C)C)C2)C(C)C (stereo not shown) [Compound 49, N-ethyl-5-fluoro-2-((5-(2-(6-hydroxy-2-methylhexan-3-yl)-2,6-diazaspiro[3.4]octan-6-yl)-1,2,4-triazin-6-yl)oxy)-N-isopropylbenzamide] |  |  |  |  | > 30200 |  |  |  |  |  |  |  |  |
| CCN(C(=O)c1cc(F)ccc1Oc1nncnc1N1CCC2(C1)CN([C@H](CCCN(C)CCOC)C(C)C)C2)C(C)C [Compound 70a] |  |  |  |  |  |  | Green | Green | Green | Green | Green | yellow |  |
| CCN(CCC[C@H](C(C)C)N1CC2(CCN(c3ncnnc3Oc3ccc(F)cc3C(=O)N(CC)C(C)C)C2)C1)CCOC [Compound 71, (R)-N-ethyl-2-((5-(2-(6-(ethyl(2-methoxyethyl)amino)-2-methylhexan-3-yl)-2,6-diazaspiro[3.4]octan-6-yl)-1,2,4-triazin-6-yl)oxy)-5-fluoro-N-isopropylbenzamide] |  | 380 | 12800 | 1470 | > 30200 | 560 |  |  |  |  |  |  |  |
| CCN(C(=O)c1cc(F)ccc1Oc1nncnc1N1CCC2(C1)CN([C@H](CCCN(C)CCO)C(C)C)C2)C(C)C [Compound 286, (R)-N-ethyl-5-fluoro-2-((5-(2-(6-((2-hydroxyethyl)(methyl)amino)-2-methylhexan-3-yl)-2,6-diazaspiro[3.4]octan-6-yl)-1,2,4-triazin-6-yl)oxy)-N-isopropylbenzamide] |  |  |  |  |  |  | Green | Green | Green | Green | Green | Green | IC50 (MEIS1 mRNA): 96 nM; IC50 (KO-52 cells): 22900 nM; IC50 (OCI-AML3 cells): 290 nM; IC50 (MOLM14 cells): 76 nM |
| CCN(C(=O)c1cc(F)ccc1Oc1nncnc1N1CCC2(C1)CN(C(CC(C)(O)CN(C)CCOC)C(C)C)C2)C(C)C (stereo not shown) [Compound 382, N-ethyl-5-fluoro-2-((5-(2-(5-hydroxy-6-((2-methoxyethyl)(methyl)amino)-2,5-dimethylhexan-3-yl)-2,6-diazaspiro[3.4]octan-6-yl)-1,2,4-triazin-6-yl)oxy)-N-isopropylbenzamide fumarate] | 0.41 | 150 | 11800 | 400 |  | 140 |  |  |  |  |  |  |  |
| CCN(C(=O)c1cc(F)ccc1Oc1nncnc1N1CCC2(C1)CN([C@H](CCCNC)C(C)C)C2)C(C)C [Compound 398, (R)-N-ethyl-5-fluoro-N-isopropyl-2-((5-(2-(2-methyl-6-(methylamino)hexan-3-yl)-2,6-diazaspiro[3.4]octan-6-yl)-1,2,4-triazin-6-yl)oxy)benzamide] |  |  | > 15000 | 220 |  | 64 | Green | Green | Green | Green | Green | Green |  |
| N-ethyl-2-((5-(2-((3*R,5*R)-6-(ethyl(methyl)amino)-5-methoxy-2-methylhexan-3-yl)-2, diazaspiro[3.4]octan-6-yl)-1,2,4-triazin-6-yl)oxy)-5-fluoro-N-isopropylbenzamide [Compound 311] |  |  |  |  |  |  |  |  |  |  |  |  | IC50 ([1]; read-out: HTRF-30 min incubation IC50, 30 min incubation): 1.01 nM; IC50 (MEIS1 mRNA): ~630 nM; IC50 (KO-52 cells): > 15000 nM; IC50 (OCI-AML3 cells): 2880 nM; IC50 (MOLM14 cells): 510 nM |
